Converted amounts (≈) assume the structure as drawn.
Assays:
Escherichia coli = assay: in vitro antibacterial evaluation, MIC by broth dilution; type: cell-based; conditions: 18 hours at 35° C.
Method in brief: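 Broth dilution in Muller-Hinton II medium per NCCLS standard M7-A2, with an inoculum of 5×10^5 CFU/mL and antibiotic tested over 64-0.06 μg/mL. MIC was taken as the lowest concentration inhibiting visible growth.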

[1] = anatomic pathology (histopathology of heart and kidney) in mice; type: in vivo; conditions: CD-1 mice, 20 mg/kg intravenously daily for 9 days, necropsy day 10, microscopic histopathology
Procedure: Samples of tissues from necropsied mice were formalin-fixed, paraffin-embedded, sectioned, stained with hematoxylin and eosin, and examined microscopically. Histopathologic findings were recorded. These findings were subjectively graded on a scale corresponding to slight, mild, moderate, marked and severe as compared to untreated controls.

Staphylococcus sp. = assay: in vitro antibacterial evaluation, MIC by broth dilution; type: cell-based; conditions: broth dilution, 18 hours at 35° C.
Method in brief: (§1)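 Following National Committee for Clinical Laboratory Standards recommendations (M7-A2), susceptibility was measured by dilution in Muller-Hinton II […]. Bacteria were seeded at 5×10^5 CFU/mL against compound concentrations from 64 down to 0.06 μg/mL.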

Enterococcus sp. = assay: as above; type: cell-based; conditions: broth dilution, 18 hours at 35° C.
Method in brief: as §1

Streptococcus sp. = assay: as above; type: cell-based; conditions: broth dilution, 18 hours at 35° C.
Method in brief: as §1

Question: For CN=C1N(C)CC(C(O)C2NC(=O)C(Cc3ccc(OC4OC(CO)C(OC5OC(CO)C(O)C(O)C5O)C(O)C4O)cc3)NC(=O)C(C(C)c3ccccc3)NC(=O)CNC(=O)C(CO)NC(=O)C(C(O)C3CN(C)C(=NC)N3C3OC(CO)C(O)C(O)C3O)NC2=O)N1C (stereo not drawn) [Example 64, Cyclo[glycyl-β-methylphenylalanyl-O-(4-O-hexopyranosylhexopyranosyl)tyrosyl-3-(1,3-dimethyl-2-(methylimino)imidazolidin-4-yl)seryl-3-[3-hexopyranosyl-1-methyl-2-(methylimino)imidazolidin-4-yl]-serylseryl]], which “MIC Escherichia coli (ATCC 25922)” value (Escherichia coli) is on record?
Answer: Its value is >128 µg/mL.

Question: And the “MIC Escherichia coli (GC 4559)” value (Escherichia coli)?
Answer: Its value is >128 µg/mL.

Question: And the “MIC Escherichia coli (GC 4560)” value (Escherichia coli)?
Answer: The value was >128 µg/mL.

Question: What about the “Anatomical Pathology (Day 10), Heart” value [1] of the same compound?
Answer: The value was 0.

Question: And the “Anatomical Pathology (Day 10), Kidney” value [1]?
Answer: Its value is 0.

Question: And the “MIC Staphylococcus aureus (ATCC 29213)” value (Staphylococcus sp.; strain ATCC 29213)?
Answer: Its value is >128 µg/mL.

Question: What about the “MIC Staphylococcus aureus (GC 1131)” value (Staphylococcus sp.; strain GC 1131) of the same compound?
Answer: Its value is >128 µg/mL.

Question: What about the “MIC Staphylococcus aureus (GC 3051)” value (Staphylococcus sp.; strain GC 3051) of the same compound?
Answer: The value was >128 µg/mL.

Question: What about the “MIC Staphylococcus aureus (GC 3053)” value (Staphylococcus sp.; strain GC 3053) of the same compound?
Answer: The value was >128 µg/mL.

Question: What about the “MIC Staphylococcus aureus (GC 4541)” value (Staphylococcus sp.; strain GC 4541) of the same compound?
Answer: Its value is >128 µg/mL.

Question: And the “MIC Staphylococcus aureus (GC 4542)” value (Staphylococcus sp.; strain GC 4542)?
Answer: Its value is >128 µg/mL.

Question: And the “MIC Staphylococcus aureus-SMITH (GC 4543)” value (Staphylococcus sp.; strain GC 4543)?
Answer: Its value is >128 µg/mL.

Question: And the “MIC Staphylococcus aureus (GC 4544)” value (Staphylococcus sp.; strain GC 4544)?
Answer: Its value is >128 µg/mL.

Question: And the “MIC Staphylococcus aureus (GC 4545)” value (Staphylococcus sp.; strain GC 4545)?
Answer: Its value is >128 µg/mL.

Question: And the “MIC Staphylococcus haemolyticus (GC 4546)” value (Staphylococcus sp.; strain GC 4546)?
Answer: The value was >128 µg/mL.

Question: What about the “MIC Coagulase Negative Staphylococcus (GC 4547)” value (Staphylococcus sp.; strain GC 4547) of the same compound?
Answer: Its value is >128 µg/mL.

Question: And the “MIC Coagulase Negative Staphylococcus (GC 4548)” value (Staphylococcus sp.; strain GC 4548)?
Answer: Its value is >128 µg/mL.

Question: And the “MIC Coagulase Negative Staphylococcus (GC 4549)” value (Staphylococcus sp.; strain GC 4549)?
Answer: Its value is >128 µg/mL.

Question: And the “MIC Coagulase Negative Staphylococcus (GC 4551)” value (Staphylococcus sp.; strain GC 4551)?
Answer: Its value is >128 µg/mL.

Question: What about the “MIC Coagulase Negative Staphylococcus (GC 6257)” value (Staphylococcus sp.; strain GC 6257) of the same compound?
Answer: The value was >128 µg/mL.

Question: What about the “MIC Enterococcus avium (GC 4558)” value (Enterococcus sp.; Enterococcus avium (GC 4558)) of the same compound?
Answer: Its value is 128 µg/mL (≈ 93.7 µM).

Question: What about the “MIC Enterococcus faecalis (ATCC 29212)” value (Enterococcus sp.; Enterococcus faecalis (ATCC 29212)) of the same compound?
Answer: The value was >128 µg/mL.

Question: And the “MIC Enterococcus faecalis (GC 4552)” value (Enterococcus sp.; Enterococcus faecalis (GC 4552))?
Answer: Its value is >128 µg/mL.

Question: And the “MIC Enterococcus faecalis (GC 4553)” value (Enterococcus sp.; Enterococcus faecalis (GC 4553))?
Answer: Its value is >128 µg/mL.

Question: What about the “MIC Enterococcus faecalis (GC 4554)” value (Enterococcus sp.; Enterococcus faecalis (GC 4554)) of the same compound?
Answer: The value was >128 µg/mL.

Question: And the “MIC Enterococcus faecalis (GC 6189)” value (Enterococcus sp.; Enterococcus faecalis (GC 6189))?
Answer: Its value is >128 µg/mL.

Question: And the “MIC Enterococcus faecium (GC 2243)” value (Enterococcus sp.; Enterococcus faecium (GC 2243))?
Answer: The value was >128 µg/mL.

Question: And the “MIC Enterococcus faecium (GC 4556)” value (Enterococcus sp.; Enterococcus faecium (GC 4556))?
Answer: The value was >128 µg/mL.

Question: And the “MIC Enterococcus faecium (GC 4557)” value (Enterococcus sp.; Enterococcus faecium (GC 4557))?
Answer: Its value is >128 µg/mL.

Question: What about the “MIC Enterococcus avium (GC 4558)” value (Enterococcus sp.) of the same compound?
Answer: Its value is 128 µg/mL (≈ 93.7 µM).

Question: What about the “MIC Enterococcus faecalis (ATCC 29212)” value (Enterococcus sp.) of the same compound?
Answer: Its value is >128 µg/mL.

Question: What about the “MIC Enterococcus faecalis (GC 2242)” value (Enterococcus sp.) of the same compound?
Answer: The value was >128 µg/mL.

Question: And the “MIC Enterococcus faecalis (GC 2691)” value (Enterococcus sp.)?
Answer: Its value is >128 µg/mL.

Question: What about the “MIC Enterococcus faecalis (GC 3059)” value (Enterococcus sp.) of the same compound?
Answer: Its value is >128 µg/mL.

Question: And the “MIC Enterococcus faecalis (GC 4552)” value (Enterococcus sp.)?
Answer: Its value is >128 µg/mL.

Question: And the “MIC Enterococcus faecalis (GC 4553)” value (Enterococcus sp.)?
Answer: The value was >128 µg/mL.

Question: And the “MIC Enterococcus faecalis (GC 4554)” value (Enterococcus sp.)?
Answer: The value was >128 µg/mL.

Question: And the “MIC Enterococcus faecalis (GC 6189)” value (Enterococcus sp.)?
Answer: Its value is >128 µg/mL.

Question: And the “MIC Enterococcus faecium (GC 2243)” value (Enterococcus sp.)?
Answer: The value was >128 µg/mL.

Question: And the “MIC Enterococcus faecium (GC 4556)” value (Enterococcus sp.)?
Answer: Its value is >128 µg/mL.

Question: And the “MIC Enterococcus faecium (GC 4557)” value (Enterococcus sp.)?
Answer: The value was >128 µg/mL.

Question: And the “MIC Enterococcus faecalis (GC 2242)” value (Enterococcus sp.; strain GC 2242)?
Answer: The value was >128 µg/mL.

Question: And the “MIC Enterococcus faecalis (GC 2691)” value (Enterococcus sp.; strain GC 2691)?
Answer: The value was >128 µg/mL.

Question: And the “MIC Enterococcus faecalis (GC 3059)” value (Enterococcus sp.; strain GC 3059)?
Answer: The value was >128 µg/mL.

Question: What about the “MIC Streptococcus agalactiae (GC 4564)” value (Streptococcus sp.) of the same compound?
Answer: Its value is 128 µg/mL (≈ 93.7 µM).

Question: And the “MIC Streptococcus pneumoniae (ATCC 6301)” value (Streptococcus sp.)?
Answer: The value was >128 µg/mL.

Question: What about the “MIC Streptococcus pneumoniae (GC 1894)” value (Streptococcus sp.) of the same compound?
Answer: The value was 128 µg/mL (≈ 93.7 µM).

Question: What about the “MIC Streptococcus pneumoniae (GC 4565)” value (Streptococcus sp.) of the same compound?
Answer: Its value is >128 µg/mL.

Question: What about the “MIC Streptococcus pyogenes (GC 4563)” value (Streptococcus sp.) of the same compound?
Answer: Its value is >128 µg/mL.

Question: What about the “MIC Streptococcus pneumoniae (ATCC 6301)” value (Streptococcus sp.; strain ATCC 6301) of the same compound?
Answer: The value was >128 µg/mL.

Question: What about the “MIC Streptococcus pneumoniae (GC 1894)” value (Streptococcus sp.; strain GC 1894) of the same compound?
Answer: The value was 128 µg/mL (≈ 93.7 µM).

Question: What about the “MIC Streptococcus pyogenes (GC 4563)” value (Streptococcus sp.; strain GC 4563) of the same compound?
Answer: Its value is >128 µg/mL.

Question: What about the “MIC Streptococcus agalactiae (GC 4564)” value (Streptococcus sp.; strain GC 4564) of the same compound?
Answer: The value was 128 µg/mL (≈ 93.7 µM).

Question: What about the “MIC Streptococcus pneumoniae (GC 4565)” value (Streptococcus sp.; strain GC 4565) of the same compound?
Answer: The value was >128 µg/mL.

From US6914045B2, “Glycopeptide antibiotics” (Wyeth Holdings Corporation, priority 2001, dated 2005)
